According to PMC6651555, “Cathepsin L Inhibitors with Activity against the Liver Fluke Identified From a Focus Library of Quinoxaline 1,4-di-N-Oxide Derivatives” (Molecules, 2019):
“Also recorded” adds a separate entry of the source.

What was measured:
FhCL1 [1] = molecular target: T1, FhCL1 (Fasciola hepatica, UniProt Q7JNQ9); experiment: FhCL1 inhibition screening, IC50 and slow-binding (fluorogenic substrate Z-VLK-AMC); assay type: biochemical; details: read-out: %Inh FhCL1, 10 µM compound, 20 min preincubation, relative to enzyme alone; SD less than 10%
T1 construct: made in house; host or cells: Hansenula polymorpha (yeast)
Protocol: (§1) Each compound was completely dissolved in dimethylsulfoxide (DMSO) to a concentration of 10 mM to prepare the stock solutions. To evaluate the inhibition of FhCL1 and FhCL3 by quinoxaline 1,4-di-N-oxide derivatives, nanomolar concentrations of each enzyme was incubated with compounds at 10 μM. Briefly, each enzyme and compound were preincubated 20 min in a 96-well plate in 0.1 M sodium phosphate buffer pH 6, 1 mM DTT, and 1 mM EDTA at room temperature. The reaction was initiated by adding 20 μM of substrate and enzyme activity was measured by the increase in aminomethyl coumarin (AMC) fluorescence as peptide substrates were hydrolyzed (Z-VLK-AMC for FhCL1 and Tos-GPR-AMC for FhCL3), at an excitation wavelength of 340 nm and emission wavelength of 440 nm using a spectrofluorometer (Varioskan Thermo, Waltham, MA, USA). Enzyme activity was expressed as RFU/s (relative fluorescence units of AMC released per second). Each compound was tested in triplicate. A control reaction without enzymes was performed to check for the occurrence of non-catalyzed reactions between substrates and inhibitors and a spectrum from 300 to 450 nm wavelength was done for each quinoxaline 1,4-di-N-oxide derivative to verify that none of them had optical activity in the measurement range. The percentage of enzyme inhibition was calculated as 100 − (vi/vo) × 100, where vi and vo correspond to the initial rate of AMC fluorescence increase (RFU/s) with and without inhibitor, respectively.
(§2) To calculate the IC50 values, compounds were incubated with each enzyme at seven different concentrations; 0.625, 1.25, 2.5, 5, 10, 20, and 40 μM. Then, the enzyme activity was measured in a 96-well plate as described before. We plotted initial rates (RFU/s) versus log10 of inhibitor concentrations and obtained the IC50 values by fitting the data to a sigmoid curve. We also carried out slow-binding assays to evaluate the time-dependence of the inhibition. Each compound was incubated at 10 μM with the enzyme for increasing lengths of time; 3 to 120 min and the percentage of inhibition at each time point was determined as described before. We calculated the inhibition percentage of the leader compounds at 10 μM for HsCL1. The enzyme was preincubated for 20 min with the compounds and the activity was measured in a 96-well plate in 400 mM sodium acetate, pH 5.5, with 4 mM EDTA, 8 mM DTT, and 20 μM of substrate Z-VLK-AMC. The percentage of enzyme inhibition was calculated as described for FhCL1 and FhCL3. We determined the IC50 value for C17 against HsCL by incubating the enzyme with four different concentrations of the compound 0, 10, 25, and 50 μM and measuring the activity as described before. We plotted initial rates (RFU/s) versus log10 of inhibitor concentration and obtained the IC50 value by fitting the data to a sigmoid curve.

F. hepatica NEJ [2] = experiment: In vitro culture of NEJ and treatment with inhibitors (motility score); assay type: cell-based, Fasciola hepatica; details: 50 μM compound, over 96 h
Protocol: F. hepatica metacercariae were acquired from Instituto Miguel C. Rubino (DILAVE, MGAP, Uruguay). NEJ were obtained by in vitro excystement as previously described with minor modifications. Briefly, metacercariae were incubated with 1% sodium hypochlorite for 5 min at room temperature to remove the outer cyst wall and then washed several times with PBS. Metacercariae activation was carried out in a medium prepared by mixing equal volumes of solution A (0.4% sodium taurocholate, 120 mM NaHCO3, 140 mM NaCl, pH 8.0) and solution B (50 mM HCl and 33 mM L-cysteine), and incubating at 39 °C until the NEJ begin to emerge (around 3–4 h). A 100 μm filter was used to retain the cyst wall. Collected NEJ were washed three times with RPMI-1640 supplemented with 200 U/mL Penicillin G sulfate, […] streptomycin sulfate, 500 ng/mL amphotericin B, 10 mM HEPES, counted and divided into groups of around 20 parasites that were transferred to 96 wells in tissue culture plates. Parasites were maintained at 37 °C, 5% CO2 in modified Basch’s medium. At day 1, each tested compound was added at a concentration of 50 μM in 0.5% DMSO. Also, 0.5% of DMSO was added to the control groups. Each condition was tested in duplicate. NEJ behavior was monitored under a light microscope (Olympus BX41, Hamburg, Germany), every day each well was recorded for a minute in order to assess parasite motility and registered using the following score: 3—normally active; 2—reduced activity (sporadic movement); 1—immotile (dead, adapted from). Control parasites were maintained in culture for seven days.

FhCL1 [3] = molecular target: T1, FhCL1; experiment: FhCL1 inhibition screening, IC50 and slow-binding (fluorogenic substrate Z-VLK-AMC); assay type: biochemical; details: 10 μM, preincubation 5 to 120 min
FhCL3 [4] = experiment: FhCL3 inhibition screening, IC50 and slow-binding (fluorogenic substrate Tos-GPR-AMC); assay type: biochemical, Fasciola hepatica; details: 10 µM compound, 20 min preincubation, relative to enzyme alone; SD less than 10%
Protocol: as §1, §2

human cathepsin L (HsCL) = human cathepsin L (HsCL) (Homo sapiens, UniProt P07711); experiment: Human cathepsin L (HsCL) inhibition, selectivity assessment; assay type: biochemical
Protocol: as §2

F. hepatica NEJ [5] = experiment: In vitro culture of NEJ and treatment with inhibitors (motility score); assay type: cell-based; details: Fasciola hepatica; after 48 h of incubation with NEJ; read-out: IC50 against NEJ
HepG2 cell line = experiment: Cytotoxicity on the HepG2 cell line (Sulforhodamin B); assay type: cell-based; details: Homo sapiens, 24 h incubation with compound
Protocol: (§3) Cytotoxicity studies on the HepG2 cell line. Cells: 1.5 × 10^4 cells per 96-well plate were cultured in 225 µL of DMEM medium, supplemented with L-glutamine (1%), penicillin/streptomycin (1%), and 10% (v/v) fetal bovine serum (FBS). The cultures were maintained at 37 °C and 5% CO2 for 48 h. Treatment: Compound solutions were prepared just before dosing. Stock solutions, […], were prepared in 100% DMSO (Aldrich, Saint Louis, MO, USA) and 25 µL of adequate dilution was added to each well 24 h after plating the cells. For each compound, a dose-response curve was done with five different compound concentrations: 6.25, 12.5, 25, 50, and 100 µM (treated cells, T). No effect on cell growth was observed by the presence of 0.5% DMSO in the culture media (control cells, C). Cells were incubated with the compounds for 24 h at 37 °C in 5% CO2 atmosphere, then the medium was discarded and the cells were washed with PBS. The cells were then fixed with 50 µL of TCA (50%) and 200 µL of culture medium (without FBS) for 1 h at 4 °C. Then the cells were washed with purified water and treated with Sulforhodamin B (0.4% wt/vol in 1% acetic acid) for 10 min at room temperature. The plates were then washed with 1% acetic acid and dried overnight. Finally, 100 µL of Tris buffer (pH = 10.0) was added and absorbance read at 540 nm. Data calculations: The assays were done in four replicates. At the end of the experiment, the cell survival percentage (SP) was calculated for each compound as (T/C) × 100. To determine the IC50, the SP of cells at each compound concentration was plotted and the data were fitted to a sigmoid curve. The standard error was not greater than 10% for any condition. For the cytotoxicity assay with bovine spermatozoa, semen samples were obtained from a healthy fertile Hereford bull and kept frozen in 0.5 mL straws (extended in Andromed, Minitube, Tiefenbach, Germany) under liquid nitrogen until use. The semen used belonged to a single freezing batch that was obtained during a regular collection schedule with an artificial vagina. Samples from three straws were thawed and a sperm pool was prepared in PBS at a concentration of 80 million spermatozoa per ml. Then, 50 μL of this pool was carefully mixed with 50 μL of each compound to be tested at a concentration of 50 µM or 1% DMSO in control experiments. Each compound was assayed in triplicate in 96-well plates and controls were assayed in triplicate. Plates were incubated at 37 °C for 1 h with moderate shaking. The motility analysis was carried out using a CASA (Computer Assisted Semen Analyzer) system Androvision (Minitube, Tiefenbach, Germany) with an Olympus BX 41 microscope (Olympus, Japan) equipped with a warm-stage at 37 °C. Each sample (10 μL) was placed onto a Makler Counting Chamber (depth 10 μm, Sefi-Medical Instruments, Haifa, Israel) and the following parameters were evaluated: percentage of total motile spermatozoa (motility >5 μm/s) and velocity curved line (VCL > 24 μm/s). At least 400 spermatozoa were analyzed from each sample from at least four microscope fields.

bovine spermatozoa = experiment: Cytotoxicity assay with bovine spermatozoa (CASA motility); assay type: cell-based; details: 50 µM, 1 h at 37 °C, relative to control sperm incubated with vehicle
Protocol: as §3

FhCL3 [6] = experiment: FhCL3 inhibition screening, IC50 and slow-binding (fluorogenic substrate Tos-GPR-AMC); assay type: biochemical, Fasciola hepatica; details: 10 μM, preincubation 5 to 120 min

Sequence of human cathepsin L (HsCL) (P07711 114-333): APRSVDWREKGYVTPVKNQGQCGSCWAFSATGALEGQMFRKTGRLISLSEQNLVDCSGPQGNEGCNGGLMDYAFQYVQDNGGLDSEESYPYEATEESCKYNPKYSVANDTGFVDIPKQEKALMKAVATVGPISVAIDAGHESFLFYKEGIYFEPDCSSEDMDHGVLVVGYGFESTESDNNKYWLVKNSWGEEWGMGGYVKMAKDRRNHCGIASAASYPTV
T1 sequence (Q7JNQ9 entry or part of it): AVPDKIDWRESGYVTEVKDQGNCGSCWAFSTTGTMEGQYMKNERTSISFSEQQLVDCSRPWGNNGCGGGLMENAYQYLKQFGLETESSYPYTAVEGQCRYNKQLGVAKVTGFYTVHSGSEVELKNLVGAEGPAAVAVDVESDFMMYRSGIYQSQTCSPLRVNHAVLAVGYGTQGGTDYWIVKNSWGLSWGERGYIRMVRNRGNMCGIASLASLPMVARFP

Compound | inhibition at 10 µM (FhCL1 [1]) [%] | Effect on NEJ motility / fasciolicide activity in vitro (F. hepatica NEJ [2]) | Time-dependence of FhCL1 inhibition (slow-binding) (FhCL1 [3]) | %Inh FhCL3 (FhCL3 [4]) [%] | IC50 (human cathepsin L (HsCL); dose-response at 0, 10, 25 and 50 μM) [µM] | Selectivity index FhCL1 (human cathepsin L (HsCL); parasite enzyme FhCL1 over human cathepsin L) | Selectivity index FhCL3 (human cathepsin L (HsCL); parasite enzyme FhCL3 over human cathepsin L) | IC50 (F. hepatica NEJ [5]) [µM] | IC50 (HepG2 cell line) [µM] | Sperm Motility RTC (relative to control) (bovine spermatozoa) | Time-dependence of FhCL3 inhibition (slow-binding) (FhCL3 [6])
N#Cc1c(N)[n+]([O-])c2ccc(/C=N/NC(=O)NCCc3ccccc3)cc2[n+]1[O-] [Compound C7] | 90 | did not have activity against the parasites; also recorded: did not have fasciolicidal activity | required short times to inhibit FhCL1 enzyme | 61 | – | – | – | – | – | – | –
C=CCNC(=S)N/N=C/c1ccc2c(c1)[n+]([O-])c(C(=O)OCC)c(-c1ccccc1)[n+]2[O-] [Compound C17] | ≥ 80 | progressive decrease of parasite motility starting between 24 and 96 h of culture; also recorded: strong fasciolicide activity in vitro | required short times to inhibit FhCL1 enzyme | – | 13 | 9.3 | 2.6 | 25.1 | 48 ± 0.3 | 81 ± 3 | –
CCOC(=O)c1c(-c2ccccc2)[n+]([O-])c2ccc(CN3CCN(C/C=C/c4ccccc4)CC3)cc2[n+]1[O-] [Compound C18] | 55 | progressive decrease of parasite motility starting between 24 and 96 h of culture; also recorded: strong fasciolicide activity in vitro | – | 61 | – | – | – | – | < 6.2 | 82 ± 2 | reached high inhibition of FhCL3 within a few minutes of incubation
C=CCNC(=S)N/N=C/c1ccc2c(c1)[n+]([O-])c(-c1ccccc1)c(C(=O)Nc1ccccc1)[n+]2[O-] [Compound C23] | ≥ 80 | slightly affected parasite motility; also recorded: did not have fasciolicidal activity | required short times to inhibit FhCL1 enzyme | – | – | – | – | – | 12 ± 0.2 | 82 ± 1 | reached high inhibition of FhCL3 within a few minutes of incubation
C=CCN1C(=O)CS/C1=N/N=C/c1ccc2c(c1)[n+]([O-])c(-c1ccccc1)c(C(=O)Nc1ccccc1)[n+]2[O-] [Compound C24] | ≥ 80 | progressive decrease of parasite motility starting between 24 and 96 h of culture; also recorded: strong fasciolicide activity in vitro | – | – | – | – | – | – | 16 ± 0.1 | 82 ± 1 | –
CSc1nc2cc(Cl)c(Oc3cccc(Cl)c3Cl)cc2[nH]1 [TCBZ, triclabendazole, reference compound] | – | – | – | – | – | – | – | – | 32 ± 0.2 | 88 ± 1 | –
